This passage reports EC50 results from patent US20220177487A1, “FUSED POLYCYCLIC PYRIDONE COMPOUNDS AS INFLUENZA VIRUS REPLICATION INHIBITORS” (NIKANG THERAPEUTICS, INC., priority 2019, published 2022).

The structures appear in SMILES notation.

The test system of this test is Influenza virus A/PR/8/34 (H1N1). The experiment in a line: in vitro cytopathic effect (CPE) assay in MDCK cells. Format: cell-based. As to conditions: H1N1|PR/8, 120 h; MDCK cells infected with Influenza virus A/PR/8/34 (H1N1), 5 days, cell viability by CCK8.
The compound `O=C1c2c(O)c(=O)ccn2N([C@@H]2c3ccccc3SCc3cccc(F)c32)[C@@H]2[C@H]3C[C@@H]4CC[C@@]3(CCN12)O4` [Compound 3, (2S,4aS,14aR,14bR)-14-((S)-10-fluoro-6,11-dihydro-dibenzo[b,e]thiepin-11-yl)-9-hydroxy-1,3,4,5,6,14,14a,14b-octahydro-2H-2,4a-epoxypyrido[1′,2′:1,6][1,2,4]triazino[3,4-a]-isoquinoline-8,10-dione] showed an EC50 of 2.1 nM.
As for `O=C1c2c(O)c(=O)ccn2N([C@H]2c3ccccc3SCc3cccc(F)c32)[C@@H]2[C@H]3C[C@@H]4CC[C@@]3(CCN12)O4` [Compound 4, (2S,4aS,14aR,14bR)-14-((R)-10-fluoro-6,11-dihydro-dibenzo[b,e]thiepin-11-yl)-9-hydroxy-1,3,4,5,6,14,14a,14b-octahydro-2H-2,4a-epoxypyrido[1′,2′:1,6][1,2,4]triazino[3,4-a]-isoquinoline-8,10-dione], the figure is 52 nM; as for `O=C1c2c(O)c(=O)ccn2N(C2c3cccc(F)c3CCc3c(F)cccc32)[C@@H]2[C@H]3C[C@@H]4CC[C@@]3(CCN12)O4` [Compound 9, (2S,4aS,14aR,14bR)-14-(1,9-difluoro-10,11-dihydro-5H-dibenzo[a,d][7]annulen-5-yl)-9-hydroxy-1,3,4,5,6,14,14a,14b-octahydro-2H-2,4a-epoxypyrido[1′,2′:1,6][1,2,4]triazino[3,4-a]-isoquinoline-8,10-dione], 20 nM; as for `O=C1c2c(O)c(=O)ccn2N(C2c3ccc(F)cc3CCc3cc(F)ccc32)[C@@H]2[C@H]3C[C@@H]4CC[C@@]3(CCN12)O4` [Compound 10, (2S,4aS,14aR,14bR)-14-(2,8-difluoro-10,11-dihydro-5H-dibenzo[a,d][7]annulen-5-yl)-9-hydroxy-1,3,4,5,6,14,14a,14b-octahydro-2H-2,4a-epoxypyrido[1′,2′:1,6][1,2,4]triazino[3,4-a]-isoquinoline-8,10-dione], 3.6 nM.
